Laboratory results taken from patent US4476120A, “Thiolic derivatives of erythromycin having therapeutic activity, and pharmaceutical compositions containing them” (Sigma Tau Indistrie Farmaceutiche Riunites, p.A, priority 1982, dated 1984).
In brackets after ≈: the same amount, converted by molar mass.

Key:
Staph. albus SS 03 = assay type: cell-based; conditions: Brain Heart Infusion, estolate and RV11-RV15 previously hydrolized, unit assumed
Staph. albus SS 04 = assay type: cell-based; conditions: Brain Heart Infusion, estolate and RV11-RV15 previously hydrolized, unit assumed
Staph. aureus SS 07 [1] = assay type: cell-based; conditions: Brain Heart Infusion, estolate and RV11-RV15 previously hydrolized, unit assumed
Staph. aureus SS 08 = assay type: cell-based; conditions: Brain Heart Infusion, estolate and RV11-RV15 previously hydrolized, unit assumed
Staph. aureus SS 10 = assay type: cell-based; conditions: Brain Heart Infusion, estolate and RV11-RV15 previously hydrolized, unit assumed
[2] = test system: Strept. haemolyticus SS 17; assay type: cell-based; conditions: Brain Heart Infusion, estolate and RV11-RV15 previously hydrolized, unit assumed
[3] = test system: Strept. haemolyticus SS 18; assay type: cell-based; conditions: Brain Heart Infusion, estolate and RV11-RV15 previously hydrolized, unit assumed
Strept. faecalis SS 19 = assay type: cell-based; conditions: Brain Heart Infusion, estolate and RV11-RV15 previously hydrolized, unit assumed
S. lutea ATCC 9341 = assay type: cell-based; conditions: Brain Heart Infusion, estolate and RV11-RV15 previously hydrolized, unit assumed
B. subtilis ATCC 6633 = assay type: cell-based; conditions: Brain Heart Infusion, estolate and RV11-RV15 previously hydrolized, unit assumed
B. subtilis SS 127 = assay type: cell-based; conditions: Brain Heart Infusion, estolate and RV11-RV15 previously hydrolized, unit assumed
B. cereus ATCC 11778 = assay type: cell-based; conditions: Brain Heart Infusion, estolate and RV11-RV15 previously hydrolized, unit assumed
B. anthranis SS 08 = assay type: cell-based; conditions: Brain Heart Infusion, estolate and RV11-RV15 previously hydrolized, unit assumed
Br. melitensis SS 19 = assay type: cell-based; conditions: unit assumed
Citrobacter SS 05 = assay type: cell-based; conditions: Brain Heart Infusion, estolate and RV11-RV15 previously hydrolized, unit assumed
S. infantis SS 08 = assay type: cell-based; conditions: Brain Heart Infusion, estolate and RV11-RV15 previously hydrolized, unit assumed
S. heidelberg SS 18 = assay type: cell-based; conditions: Brain Heart Infusion, estolate and RV11-RV15 previously hydrolized, unit assumed
E. cloacae SS 07 = assay type: cell-based; conditions: Brain Heart Infusion, estolate and RV11-RV15 previously hydrolized, unit assumed
E. aerogenes SS 011 = assay type: cell-based; conditions: Brain Heart Infusion, estolate and RV11-RV15 previously hydrolized, unit assumed
Ps. aeruginosa SS 10 = assay type: cell-based; conditions: Brain Heart Infusion, estolate and RV11-RV15 previously hydrolized, unit assumed
E. coli SS 04 = assay type: cell-based; conditions: Brain Heart Infusion, estolate and RV11-RV15 previously hydrolized, unit assumed
E. coli SS 05 = assay type: cell-based; conditions: Brain Heart Infusion, estolate and RV11-RV15 previously hydrolized, unit assumed
E. coli SS 06 = assay type: cell-based; conditions: Brain Heart Infusion, estolate and RV11-RV15 previously hydrolized, unit assumed
E. coli SS 07 = assay type: cell-based; conditions: Brain Heart Infusion, estolate and RV11-RV15 previously hydrolized, unit assumed
Pr. mirabilis SS 09 = assay type: cell-based; conditions: Brain Heart Infusion, estolate and RV11-RV15 previously hydrolized, unit assumed
Pr. vulgaris SS 10 = assay type: cell-based; conditions: Brain Heart Infusion, estolate and RV11-RV15 previously hydrolized, unit assumed
Kl. aerogenes SS 71 = assay type: cell-based; conditions: Brain Heart Infusion, estolate and RV11-RV15 previously hydrolized, unit assumed
H. tubercolosis SS 03 = assay type: cell-based; conditions: Brain Heart Infusion, estolate and RV11-RV15 previously hydrolized, unit assumed
From the text: (§1) In the following table I the MIC/ml values are indicated corresponding to the lowest concentration capable of inducing a complete inhibition of the bacterial development.

Kl. pneumoniae SS 04 = assay type: cell-based; conditions: Brain Heart Infusion, estolate and RV11-RV15 previously hydrolized, unit assumed
From the text: as §1

Sr. marcescens SS 03 = assay type: cell-based; conditions: Brain Heart Infusion, estolate and RV11-RV15 previously hydrolized, unit assumed
C. diphtheriae SS 19 = assay type: cell-based; conditions: Brain Heart Infusion, estolate and RV11-RV15 previously hydrolized, unit assumed
D. pneumoniae SS 23 [4] = assay type: cell-based; conditions: Brain Heart Infusion, estolate and RV11-RV15 previously hydrolized, unit assumed
N. gonorreae SS 27 = assay type: cell-based; conditions: Brain Heart Infusion, estolate and RV11-RV15 previously hydrolized, unit assumed
N. meningitidis SS 04 = assay type: cell-based; conditions: Brain Heart Infusion, estolate and RV11-RV15 previously hydrolized, unit assumed
H. influentiae SS 02 = assay type: cell-based; conditions: Brain Heart Infusion, estolate and RV11-RV15 previously hydrolized, unit assumed
H. pertussis SS 03 = assay type: cell-based; conditions: Brain Heart Infusion, estolate and RV11-RV15 previously hydrolized, unit assumed
C. albicans SS 04 = assay type: cell-based; conditions: Brain Heart Infusion, estolate and RV11-RV15 previously hydrolized, unit assumed
Cl. tetani SS 17 = assay type: cell-based; conditions: Brain Heart Infusion, estolate and RV11-RV15 previously hydrolized, unit assumed
B. anthranis SS 09 = assay type: cell-based; conditions: B. anthranis SS 09 (14 bis); Brain Heart Infusion; estolate and RV11-RV15 previously hydrolized; unit assumed
Acute toxicity = assay type: in vivo; conditions: mortality 10 days after treatment, mice
Procedure: The acute toxicity was assessed in Swiss white mice by oral and intravenous route. The LD50 values have been calculated by the methods of Probits, starting from the mortality recorded 10 days after the treatment.

Staph. aureus SS 07 [5] = experiment: Experimental infection induced by Staph. aureus SS 07; assay type: in vivo, Swiss white mice; conditions: Staph. aureus SS 07, mg/kg of erythromycin, survival after 7 days
In short: (§2)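 Swiss mice of 20 g infected parenterally with lethal amounts of Staph. aureus SS 07 or D. pneumoniae SS 23. Antibiotics were given at infection and again 6 and 24 h later. ED50 was derived from survival at 7 days.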

D. pneumoniae SS 23 [6] = experiment: Experimental infection induced by D. pneumoniae SS 23; assay type: in vivo, Swiss white mice; conditions: D. pneumoniae SS 23, mg/kg of erythromycin, survival after 7 days
In short: as §2

[7] = Histological examination of bronchi after SO2 inhalation; assay type: in vivo, Sprague Dawley male rats; conditions: i.m., 250 mg/kg

Question: For `CC[C@H]1OC(=O)[C@H](C)[C@@H](O[C@H]2C[C@@](C)(OC)[C@@H](O)[C@H](C)O2)[C@H](C)[C@@H](O[C@@H]2O[C@H](C)C[C@H](N(C)C)[C@H]2O)[C@](C)(O)C[C@@H](C)C(=O)[C@H](C)[C@@H](O)[C@]1(C)O` [RV01, erythromycin alpha-mercaptosuccinate], which MIC (Staph. albus SS 03) is on record?
Answer: 0.1 mg/L (≈ 0.136 µM)

Question: What about the MIC (Staph. albus SS 04) of the same molecule?
Answer: 0.05 mg/L (≈ 0.0681 µM)

Question: What about the MIC (Staph. aureus SS 07 [1]) of the same molecule?
Answer: 0.05 mg/L (≈ 0.0681 µM)

Question: And the MIC (Staph. aureus SS 08)?
Answer: 0.025 mg/L (≈ 0.0341 µM)

Question: What about the MIC (Staph. aureus SS 10) of the same molecule?
Answer: 0.05 mg/L (≈ 0.0681 µM)

Question: And the MIC [2]?
Answer: 3 mg/L (≈ 4.09 µM)

Question: What about the MIC [3] of the same molecule?
Answer: 1.5 mg/L (≈ 2.04 µM)

Question: And the MIC (Strept. faecalis SS 19)?
Answer: 0.1 mg/L (≈ 0.136 µM)

Question: What about the MIC (S. lutea ATCC 9341) of the same molecule?
Answer: 0.01 mg/L (≈ 0.0136 µM)

Question: What about the MIC (B. subtilis ATCC 6633) of the same molecule?
Answer: 0.01 mg/L (≈ 0.0136 µM)

Question: And the MIC (B. subtilis SS 127)?
Answer: 0.01 mg/L (≈ 0.0136 µM)

Question: What about the MIC (B. cereus ATCC 11778) of the same molecule?
Answer: 0.4 mg/L (≈ 0.545 µM)

Question: And the MIC (B. anthranis SS 08)?
Answer: 0.4 mg/L (≈ 0.545 µM)

Question: And the MIC (Br. melitensis SS 19)?
Answer: 3 mg/L (≈ 4.09 µM)

Question: And the MIC (Citrobacter SS 05)?
Answer: > 200 mg/L

Question: And the MIC (S. infantis SS 08)?
Answer: 100 mg/L (≈ 136 µM)

Question: And the MIC (S. heidelberg SS 18)?
Answer: 100 mg/L (≈ 136 µM)

Question: And the MIC (E. cloacae SS 07)?
Answer: > 200 mg/L

Question: What about the MIC (E. aerogenes SS 011) of the same molecule?
Answer: 50 mg/L (≈ 68.1 µM)

Question: What about the MIC (Ps. aeruginosa SS 10) of the same molecule?
Answer: 200 mg/L (≈ 273 µM)

Question: What about the MIC (E. coli SS 04) of the same molecule?
Answer: 50 mg/L (≈ 68.1 µM)

Question: What about the MIC (E. coli SS 05) of the same molecule?
Answer: 50 mg/L (≈ 68.1 µM)

Question: And the MIC (E. coli SS 06)?
Answer: 100 mg/L (≈ 136 µM)

Question: What about the MIC (E. coli SS 07) of the same molecule?
Answer: 25 mg/L (≈ 34.1 µM)

Question: What about the MIC (Pr. mirabilis SS 09) of the same molecule?
Answer: > 200 mg/L

Question: And the MIC (Pr. vulgaris SS 10)?
Answer: > 200 mg/L

Question: What about the MIC (Kl. aerogenes SS 71) of the same molecule?
Answer: 100 mg/L (≈ 136 µM)

Question: And the MIC (H. tubercolosis SS 03)?
Answer: 50 mg/L (≈ 68.1 µM)

Question: What about the MIC (Kl. pneumoniae SS 04) of the same molecule?
Answer: 100 mg/L (≈ 136 µM)

Question: What about the MIC (Sr. marcescens SS 03) of the same molecule?
Answer: 200 mg/L (≈ 273 µM)

Question: What about the MIC (C. diphtheriae SS 19) of the same molecule?
Answer: 0.025 mg/L (≈ 0.0341 µM)

Question: What about the MIC (D. pneumoniae SS 23 [4]) of the same molecule?
Answer: 0.05 mg/L (≈ 0.0681 µM)

Question: What about the MIC (N. gonorreae SS 27) of the same molecule?
Answer: 0.8 mg/L (≈ 1.09 µM)

Question: What about the MIC (N. meningitidis SS 04) of the same molecule?
Answer: 0.8 mg/L (≈ 1.09 µM)

Question: And the MIC (H. influentiae SS 02)?
Answer: 1.5 mg/L (≈ 2.04 µM)

Question: What about the MIC (H. pertussis SS 03) of the same molecule?
Answer: 0.4 mg/L (≈ 0.545 µM)

Question: What about the MIC (C. albicans SS 04) of the same molecule?
Answer: > 200 mg/L

Question: What about the MIC (Cl. tetani SS 17) of the same molecule?
Answer: 0.2 mg/L (≈ 0.273 µM)

Question: And the MIC (B. anthranis SS 09)?
Answer: 0.4 mg/L (≈ 0.545 µM)

Question: And the “LD50 (reliability limits)” value (Acute toxicity; i.v., 14400 min)?
Answer: 458.49 (518.06-405.77) mg.kg

Question: What about the “LD50 (reliability limits)” value (Acute toxicity; os) of the same molecule?
Answer: > 3000 mg·kg

Question: What about the ED50 (Staph. aureus SS 07 [5]; Staphylococcus aureus, SS07, in Mus musculus, sc, 168 h, s.c., read-out: ED50 (reliability limits)) of the same molecule?
Answer: 0.95 mg/kg

Question: And the “ED50 (reliability limits)” value (Staph. aureus SS 07 [5]; os, 10080 min)?
Answer: 2.36 (2.68-2.08) mg/kg

Question: And the ED50 (D. pneumoniae SS 23 [6]; Streptococcus pneumoniae, SS23, in Mus musculus, sc, 168 h, s.c., read-out: ED50 (reliability limits))?
Answer: 52.7 mg/kg

Question: And the “ED50 (reliability limits)” value (D. pneumoniae SS 23 [6]; os, 10080 min)?
Answer: 108.98 (137.60-86.32) mg/kg

Question: And the “histological appearance of non obstructed bronchi” value ([7]; free non obstructed)?
Answer: practically normal appearance

Question: And the “histological appearance of obstructed bronchial tract” value ([7]; obstructed)?
Answer: an appearance like that of the control animals
